From PMC13206195, “Low‐dose cannabidiol increases plasma concentrations of amitriptyline: A clinical drug–drug interaction study” (British Journal of Clinical Pharmacology, 2025)
Read-outs that look alike come from different tables or passages of the source.

Legend:
[1] = Plasma pharmacokinetics (non-compartmental analysis) in open-label, fixed-sequence, 2-way crossover study in healthy participants; conditions: for AUClast, Geometric mean / AUClast, Mean / AUClast, Median / Clast, Geometric mean / Clast, Mean / Clast, Median / Cmax, Geometric mean / Cmax, Mean / Cmax, Median / tlag, Median / tmax, Median / AUC(0-t) / Cmax: fasted, plasma; for AUC(0-t) / Cmax: po; for AUC(0-t): AUClast
Experimental: (§1) This study was an open‐label, fixed sequence, 2‐way crossover study in 13 healthy participants. On Day 1, 25 mg amitriptyline and 50 mg tramadol were orally administered concurrently, followed by a wash‐out period of at least 7 days. On Day 8, 30 mg of oral CBD oil was administered 1 h prior to amitriptyline and tramadol. On Days 1 and 8, participants presented to the clinical research unit in the morning and were discharged in the evening, briefly returning in the morning of Days 2 and 9 for pharmacokinetic sampling.
The cannabidiol formulation used in this study was Clinican®, an almond oil‐based formulation containing 10% cannabidiol and manufactured by Clinical Cannabis Care (Breukelen, the Netherlands) and administered orally with 240 mL of water following an overnight fast. Single doses of 30 mg CBD were administered. […] Furthermore, we estimated that the 30 mg CBD dose is at the upper end of the range of CBD intake of patients who use CBD‐rich varieties of medicinal cannabis (or formulations containing THC and CBD, like Sativex®) for treatment of neuropathic pain symptoms,[23] and as well as an approximately median dose for OTC CBD users. Cannabidiol was administered one hour prior to amitriptyline and tramadol (during visit 2 only) to offset the slower absorption expected from an oil‐based cannabinoid formulation, compared to the victim drugs.
Generic oral formulations of tramadol (50 mg tramadol hydrochloride capsule) and amitriptyline (25 mg hydrochloride tablet) were used in this study. These doses were at the low end of the therapeutic range, allowing for a safety margin for possible increases in plasma concentrations when co‐administered with CBD. Tramadol and amitriptyline were not known to induce or inhibit CYP‐enzymes in general, and no specific pharmacokinetic interactions between the two victim drugs were known to the investigators. […] However, this risk was deemed clinically irrelevant when low, single doses were administered to healthy volunteers. Based on these consideration regarding pharmacokinetics and safety, the two victim drugs were administered together in a cocktail design.
Sampling for pharmacokinetics was performed pre‐dose and at 1, 2, 3, 4, 5, 6, 8, 12 and 24 h following the administration of amitriptyline and tramadol. Approximately 4 mL blood was collected via an i.v. catheter placed in an antecubital vein in the arm in polypropylene K2EDTA tubes. Following collection, samples were immediately cooled on ice. Within 30 min of collection, plasma was separated by centrifugation at approximately 2000 g for 10 min and promptly transferred into amber glass vials and stored at […]. The samples were analysed by the iC42 Laboratory (Department of Anesthesiology, University of Colorado, Aurora, Colorado, USA). CBD and CBD metabolites were analysed using a validated assay that was previously published (CBD metabolite concentrations not reported in this manuscript).[33] Concentrations of amitriptyline, nortriptyline, tramadol and O‐desmethyltramadol were determined using a validated assay that was based on a previously published high‐performance liquid chromatography tandem mass spectrometry (HPLC‐MS/MS) method.[34] Details regarding the bioanalytical assays used to measure CBD, amitriptyline, nortriptyline, tramadol and O‐desmethyltramadol are located in the Supplementary Materials section.
R 3.6.1 for Windows (R Foundation for Statistical Computing/R development Core Team, Vienna, Austria, 2019), PKNCA package version 0.9.5, was used to calculate pharmacokinetic parameters. PK parameter calculations were based on actual sampling time.

[2] = clinical
Experimental: as §1
To establish whether significant treatment effects could be detected, the PK parameters were compared with a mixed effects model analysis of variance (ANOVA) with treatment as a fixed factor and participants as a random factor on log‐transformed data. The general treatment effect and specific contrasts were reported with the estimated difference and the 95% confidence interval, the least square mean estimates and the p‐value. All calculations were performed using SAS for Windows V9.4 (SAS Institute, Inc., Cary, NC, USA).

[3] = cited from earlier work; for mean (SD) AUC: previous trial
[4] = cited from earlier work
[5] = Visit 1 (Day 1), no CBD, based on AUClast, corrected for molecular weight ratio, N=13
[6] = Visit 1 (Day 1): 25 mg amitriptyline + 50 mg tramadol oral, no CBD, N=13
[7] = Visit 2 (Day 8), 30 mg CBD 1 h prior, based on AUClast, corrected for molecular weight ratio, N=12
[8] = Visit 2 (Day 8): 30 mg CBD oral 1 h prior to 25 mg amitriptyline + 50 mg tramadol, N=12
[9] = Visit 1: without CBD, mixed effects model on log-transformed data
[10] = Visit 2 (with 30 mg CBD) vs Visit 1 (without CBD)
[11] = Visit 2: with 30 mg CBD, mixed effects model on log-transformed data
[12] = human, in vivo, Geometric mean, Visit 2 (Day 8): 30 mg CBD oral 1 h prior to 25 mg amitriptyline + 50 mg tramadol, N=12
[13] = human, in vivo, Mean, Visit 2 (Day 8): 30 mg CBD oral 1 h prior to 25 mg amitriptyline + 50 mg tramadol, N=12
[14] = human, in vivo, Median, Visit 2 (Day 8): 30 mg CBD oral 1 h prior to 25 mg amitriptyline + 50 mg tramadol, N=12

For `CNCCC=C1c2ccccc2CCc2ccccc21` [Nortriptyline], the “MPR (metabolite to parent ratio), Geometric mean” value ([1]; human, in vivo) was 0.57, the “MPR (metabolite to parent ratio), Mean” value ([1]; human, in vivo) was 0.62 and the “MPR (metabolite to parent ratio), Median” value ([1]; human, in vivo) was 0.60. For the same molecule, the AUC(0-t) ([2]; human, in vivo) was 75.3 ng·h/mL, the “Clast, back transformed LSM Visit 1” value ([2]; human, in vivo) was 3.30 and the Cmax ([2]; human, in vivo) was 4.36 ng/mL. The AUC(0-t) ([2]; human, in vivo, 30 mg) was 79.5 ng·h/mL, the Cmax ([2]; human, in vivo, 30 mg) was 4.51 ng/mL and the “terminal half‐life” value [3] was ~ 26 h.

For `CN(C)CCC=C1c2ccccc2CCc2ccccc21` [Amitriptyline], the baseline amitriptyline concentration ([1]; human, in vivo) was 0.85 ng/mL, the AUC(0-t) ([2]; human, in vivo) was 139 ng·h/mL and the “Clast, back transformed LSM Visit 1” value ([2]; human, in vivo) was 3.40. It also gave a Cmax ([2]; human, in vivo) of 12.3 ng/mL, an AUC(0-t) ([2]; human, in vivo, 30 mg) of 156 ng·h/mL and a Cmax ([2]; human, in vivo, 30 mg) of 14.5 ng/mL. For the same molecule, the “terminal half‐life” value [3] was ~ 25 h and the “mean (SD) AUC” value ([3]; 28 participants dosed with 10 mg of amitriptyline) was 156 (87.8) ng*h/mL.

With `CN(C)C[C@H]1CCCC[C@]1(O)c1cccc(O)c1` [O‐desmethyltramadol] the “MPR (metabolite to parent ratio), Geometric mean” value [1, 5] was 0.37, the “MPR (metabolite to parent ratio), Mean” value [1, 5] was 0.40 and the “MPR (metabolite to parent ratio), Median” value [1, 5] was 0.33. For the same molecule, the “AUClast, Geometric mean” value [1, 6] was 400.4 ng·h/mL, the “AUClast, Mean” value [1, 6] was 412.0 ng·h/mL and the “AUClast, Median” value [1, 6] was 388.6 ng·h/mL. The “Clast, Geometric mean” value [1, 6] was 4.4 ng/mL, the “Clast, Mean” value [1, 6] was 4.8 ng/mL and the “Clast, Median” value [1, 6] was 4.1 ng/mL. For the same molecule, the “Cmax, Geometric mean” value [1, 6] was 35.0 ng/mL, the “Cmax, Mean” value [1, 6] was 36.7 ng/mL and the “Cmax, Median” value [1, 6] was 31.1 ng/mL. For the same molecule, the “tlag, Median” value [1, 6] was 0.0 h, the “tmax, Median” value [1, 6] was 3.0 h and the “MPR (metabolite to parent ratio), Geometric mean” value [1, 7] was 0.37. For the same molecule, the “MPR (metabolite to parent ratio), Mean” value [1, 7] was 0.39, the “MPR (metabolite to parent ratio), Median” value [1, 7] was 0.32 and the “AUClast, Geometric mean” value [1, 8] was 399.5 ng·h/mL. For the same molecule, the “AUClast, Mean” value [1, 8] was 411.1 ng·h/mL, the “AUClast, Median” value [1, 8] was 396.1 ng·h/mL and the “Clast, Geometric mean” value [1, 8] was 4.0 ng/mL. For the same molecule, the “Clast, Mean” value [1, 8] was 4.4 ng/mL, the “Clast, Median” value [1, 8] was 3.9 ng/mL and the “Cmax, Geometric mean” value [1, 8] was 37.6 ng/mL. The “Cmax, Mean” value [1, 8] was 39.5 ng/mL, the “Cmax, Median” value [1, 8] was 33.6 ng/mL and the “tlag, Median” value [1, 8] was 0.0 h. The “tmax, Median” value [1, 8] was 2.5 h, the “MPR, back transformed LSM Visit 1” value ([2]; Visit 1: without CBD, metabolite to parent ratio) was 0.37 and the “AUClast, back transformed LSM Visit 1” value [2, 9] was 400.41. The “Clast, back transformed LSM Visit 1” value [2, 9] was 4.43, the “Cmax, back transformed LSM Visit 1” value ([2]; Visit 1: without CBD, mixed effects model on log-transformed data, in ng/mL) was 34.99 and the “AUClast, Ratio of LSMs” value [2, 10] was 0.99. The “Clast, Ratio of LSMs” value [2, 10] was 0.91, the “Cmax, Ratio of LSMs” value [2, 10] was 1.05 and the “MPR, Ratio of LSMs” value [2, 10] was 0.95. The “MPR, back transformed LSM Visit 2” value ([2]; Visit 2: with 30 mg CBD, metabolite to parent ratio) was 0.36, the “AUClast, back transformed LSM Visit 2” value [2, 11] was 396.86 and the “Clast, back transformed LSM Visit 2” value [2, 11] was 4.04. For the same molecule, the “Cmax, back transformed LSM Visit 2” value ([2]; Visit 2: with 30 mg CBD, mixed effects model on log-transformed data, in ng/mL) was 36.84, the “terminal half‐life” value [3] was ~ 7 h and the “mean (SD) AUC” value ([3]; 25 participants dosed with 100 mg tramadol) was 669 (181) ng*h/mL.

For `C=C(C)[C@@H]1CCC(C)=C[C@H]1c1c(O)cc(CCCCC)cc1O` [Cannabidiol], the “Clast, Geometric mean” value [1, 8] was 1.0 ng/mL, the “Clast, Mean” value [1, 8] was 1.1 ng/mL and the “Clast, Median” value [1, 8] was 1.1 ng/mL. For the same molecule, the “tlag, Median” value [1, 8] was 0.0 h, the “tmax, Median” value [1, 8] was 2.0 h and the AUC(0-t) [1, 12] was 5.3 ng·h/mL. For the same molecule, the AUC(0-t) [1, 13] was 6.9 ng·h/mL, the AUC(0-t) [1, 14] was 6.2 ng·h/mL and the Cmax [1, 12] was 2.9 ng/mL. For the same molecule, the Cmax [1, 13] was 3.5 ng/mL, the Cmax [1, 14] was 3 ng/mL and the “terminal half‐life” value [3] was ~ 60 h. The “mean±SD Cmax” value ([4]; previous study, 30 mg CBD tablet formulation after semi-standardized light breakfast) was 5.6 ± 4.6 ng/mL.

In the case of 11‐OH‐THC, the “increase of mean AUC by 30 mg CBD” value ([4]; 30 mg CBD administered 30 min before THC) is listed as 71%.
